Source: EP0590919A1, “Therapeutic agents for parkinson's disease” (KYOWA HAKKO KOGYO CO., LTD., priority 1992, dated 1994)
Like-named read-outs stand apart in the source and are kept apart here. Marks after values point to notes of the source that are not given here.

Tests used:
[1] = test system: MPTP-treated C57BL/6 mice; assay: Effect on locomotor activity in Parkinson's disease model in mice (MPTP); type: in vivo; conditions: for Amount of Active Movements (average count ± S.E.M): MPTP (+)
Method: The experiment was performed by using several groups of 7-weeks-old male C57BL/6 mice (weighing 20 to 24 g, Japan SLC), each group consisting of 8 mice. MPTP (Aldrich Chemical Co., Inc.) dissolved in a physiological saline solution (Otsuka Pharmaceutical Co., Ltd.) was intraperitoneally administered to each mouse once a day for five consecutive days at a dose of 30 mg/kg. A test compound was suspended in injectable distilled water (Otsuka Phamaceutical Co., Ltd.) containing Tween 80 [polyoxyethylene (20) sorbitan monooleate]. L-DOPA (Kyowa Hakko Kogyo Co., Ltd.) was suspended in 0.3% CMC (sodium carboxylmethylcellulose) and bromocriptine was suspended in injectable distilled water. Thirty minutes after the final MPTP administration, the test compound suspensions and the control suspension [injectable distilled water (Otsuka Pharmaceutical Co., Ltd.) containing Tween 80] containing no test compound were orally administered to separate groups of the mice (0.1 ml per 10 g of body weight). […] Statistical comparison of the values was carried out by Student's t-test.

[2] = test system: Rats with a 6-Hydroxydopamine-Induced Unilateral Lesion of the Nigrostriatal Dopamine Pathway; assay: Augmentation of apomorphine-induced contralateral rotation in 6-hydroxydopamine-lesioned rats; type: in vivo; conditions: test compound 1 mg/kg orally 30 minutes before apomorphine 0.1 mg/kg s.c.; 150 minutes
Method: Then, the animals were anesthetized with sodium pentobarbital (30 mg/kg, i.p., Dainippon Pharm. Co., Ltd.) and the nigrostriatal pathway was lesioned by injection of 6-hydroxydopamine hydrobromide (8 µg, Sigma Co.) into the left medial forebrain bundle. 6-Hydroxydopamine hydrobromide was dissolved in physiological saline containing 0.05% L-ascorbic acid (Wako Pure Chem. Industries, Ltd.) to make 2 µl of solution and injected over 3 minutes.
More than 10 days after surgery, each rat was placed in a plastic bowl (30 cm in diameter). […] The number of rotations was counted with an automated rotometer, in which each 180° turn was counted as a rotation.
Test compounds were suspended in 0.3% sodium carboxymethylcellulose and administered orally at a dose of 1 mg/kg 30 minutes before the injection of apomorphine (0.1 mg/kg, s.c.). The counts of rotations were summed up every 5 minutes for 150 minutes after apomorphine administration. The total rotation counts induced by apomorphine (0.1 mg/kg, s.c.) with and without a test compound were statistically compared, using the same animals. Rats were allowed to rest more than 5 days between each experiment. Statistical comparison of the values was carried out by Sign-Wilcoxon test.

dd-strain male mice = assay: Acute toxicity test (minimum lethal dose, oral); type: in vivo; conditions: oral administration, three mice per group, mortality seven days after administration
Method: Test compounds were orally administered to groups of dd-strain male mice weighing 20 ± 1 g, each group consisting of three mice. Seven days after the administration, minimum lethal dose (MLD) of each compound was determined by observing the mortality.

[3] = test system: Haloperidol-Induced Catalepsy; assay: Effect on haloperidol-induced catalepsy; type: in vivo, mice; conditions: for ED50: Mus musculus, 1 h, read-out: ED₅₀; for Number of the Animals Showing Remission: of five mice, catalepsy score not more than 4 points; for Number of the Animals Showing Remission / Remission Rate (%) / Total Score: 10 mg/kg orally; for Remission Rate (%): rate of decrease in total score based on control group; for Total Score: total catalepsy score of five mice (25 points at the full), haloperidol 1.0 mg/kg i.p.
How it was run: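 Mice got haloperidol 1.0 mg/kg i.p. in 0.3% CMC, then test compounds orally 1 hr later in 0.3% CMC or Tween 80/water. Catalepsy was scored on a 4.5 cm-high bar 1 hr after dosing; remission meant score ≤4 points. ED₅₀ came from Probit analysis.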

A₁ receptor = target: T1, A₁ receptor (Cavia porcellus, UniProt P47745); assay: Adenosine A₁ receptor binding test (³H-CHA binding); set-up: species or system guinea pig; conditions: for inhibition at 100 µM: 10⁻⁴M; for inhibition at 100 µM / inhibition at 10 µM: guinea pig cerebrum; for inhibition at 10 µM: 10⁻⁵M
T1 construct: from tissue; host or cells: guinea pig cerebrum membrane preparation
T1 sequence (P47745 1-326): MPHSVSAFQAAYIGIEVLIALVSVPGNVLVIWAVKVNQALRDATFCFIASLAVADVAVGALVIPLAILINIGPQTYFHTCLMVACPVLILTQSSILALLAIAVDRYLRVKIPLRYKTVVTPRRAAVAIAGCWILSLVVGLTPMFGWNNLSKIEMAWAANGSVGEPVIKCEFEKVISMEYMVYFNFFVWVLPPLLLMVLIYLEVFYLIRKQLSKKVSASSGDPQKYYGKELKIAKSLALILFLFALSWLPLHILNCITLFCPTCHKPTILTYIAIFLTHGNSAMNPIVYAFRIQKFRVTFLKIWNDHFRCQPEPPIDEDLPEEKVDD
Method: Cerebrum of a guinea pig was suspended in ice-cooled 50 mM Tris hydroxymethyl aminomethane hydrochloride (Tris HCl) buffer (pH 7.7) by using Polytron homogenizer (manufactured by […] Co.). […] The suspension was centrifuged under the same conditions, and the final precipitate was suspended once again in 50 mM Tris HCl buffer to give a tissue concentration of 100 mg (wet weight)/ml. The tissue suspension was incubated at 37°C for 30 minutes in the presence of 0.02 unit/mg tissue of adenosine deaminase (manufactured by Sigma Co.). The tissue suspension was then centrifuged (50,000 x g, 10 minutes), and 50 mM Tris HCl buffer was added to the precipitate to adjust the concentration of tissue to 10 mg (wet weight)/ml. […] The mixture solution was allowed to stand at 25°C for 90 minutes and then rapidly filtered by suction through a glass fiber filter (GF/C manufactured by Whatman Co.). […] The radioactivity on the filter was determined with a liquid scintillation counter (manufactured by Packard Instrument Co.). […] The inhibition constant (Ki value) shown in the table was calculated by the Cheng-Prusoff's equation.

A₂ receptor [4] = target: T2, A₂ receptor (Rattus norvegicus, UniProt P30543); assay: Adenosine A₂ receptor binding test (³H-NECA binding); conditions: for inhibition at 0.1 µM / inhibition at 1 µM / inhibition at 10 µM / inhibition at 100 µM: read-out: Inhibition (%) A₂ Receptor; for Ki: ³H-NECA binding
T2 construct: from tissue; host or cells: rat corpus striatum membrane preparation
T2 sequence (P30543 whole entry): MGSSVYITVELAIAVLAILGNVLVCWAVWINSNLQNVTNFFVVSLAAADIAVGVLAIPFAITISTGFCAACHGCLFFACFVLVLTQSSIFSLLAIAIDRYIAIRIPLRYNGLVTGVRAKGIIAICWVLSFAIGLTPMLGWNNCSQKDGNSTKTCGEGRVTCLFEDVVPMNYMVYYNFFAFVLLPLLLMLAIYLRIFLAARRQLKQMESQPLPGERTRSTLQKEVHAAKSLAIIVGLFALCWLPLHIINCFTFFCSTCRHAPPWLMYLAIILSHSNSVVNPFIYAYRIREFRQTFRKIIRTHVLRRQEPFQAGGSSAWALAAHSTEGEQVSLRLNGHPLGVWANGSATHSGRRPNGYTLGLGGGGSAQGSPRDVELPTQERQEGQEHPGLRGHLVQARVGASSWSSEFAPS

A₂ receptor [5] = target: T2, A₂ receptor; assay: Adenosine A₂ receptor binding test (³H-CGS 21680 binding); conditions: [^3H]CGS 21680 was used, rat corpus striatum, read-out: A2 Receptor Inhibition (%)
Method: The similar procedure as in the above-described adenosine A₁ receptor binding test was repeated using rat corpus striatum to obtain the final precipitate of the tissue thereof. The precipitate was suspended in 50 mM Tris HCl buffer containing 10 mM magnesium chloride and 0.02 unit/mg tissue of adenosine deaminase (manufactured by Sigma Co.) to give a tissue concentration of 5 mg (wet weight)/ml.
The similar procedure as above was repeated to determine the radioactivity bound to the A₂ receptors using 50 µl of CGS 21680 labeled with tritium [³H-2-[p-(2-carboxyethyl)-phenethylamino]-5'-(N-ethylcarboxamide)adenosine: 40 Ci/mmol, manufactured by New England Nuclear Co. (J. Pharmacol. Exp. Ther., 251, 888 (1989)] (final concentration: 4.0 nM) in place of 50 µl of the mixture of N-ethylcarboxamidoadenosine labeled with tritium (³H-NECA: 26 Ci/mmol, manufactured by Amersham Co.) (final concentration: 3.8 nM) and cyclopentyladenosine (CPA, manufactured by Sigma Co.) (final concentration: 50 nM).
The inhibition rate of the test compound against the binding of A₂ receptors (³H-CGS 21680 binding) was calculated by the following equation: [formula] [Notes] • 1. "B" means the amount of radioactivity of ³H-CGS 21680 bound in the presence of a test compound at a concentration shown in Table 4. • 2. "T" means the amount of radioactivity of ³H-CGS 21680 bound in the absence of a test compound. • 3. "N" means the amount of radioactivity of ³H-CGS 21680 bound in the presence of 100 µM CPA.

[6] = ten mice at each dose, effective = catalepsy score 3 or less, Probit analysis, oral
[7] = test compound 2.5 mg/kg orally, 30 minutes starting 30 minutes after administration
[8] = test compound 10 mg/kg orally, 30 minutes starting 30 minutes after administration

SMILES | total amount of rotations (average count ± S.E.M.) test compound + apomorphine [2] [count] | MLD (dd-strain male mice) [mg/kg] | ED50 [3, 6] [mg/kg] | Number of the Animals Showing Remission [3] | Remission Rate (%) [3] [%] | Total Score [3] | Amount of Active Movements (average count ± S.E.M) [1, 7] [count] | inhibition at 100 µM (A₁ receptor) [%] | inhibition at 10 µM (A₁ receptor) [%] | inhibition at 0.1 µM (A₂ receptor [4]) [%] | inhibition at 1 µM (A₂ receptor [4]) [%] | inhibition at 10 µM (A₂ receptor [4]) [%] | inhibition at 100 µM (A₂ receptor [4]) [%] | Ki (A₂ receptor [4]) [nM] | further results
CC(C)C[C@H]1C(=O)N2CCC[C@H]2[C@]2(O)O[C@](NC(=O)[C@@H]3C=C4c5cccc6[nH]c(Br)c(c56)C[C@H]4N(C)C3)(C(C)C)C(=O)N12 [Bromocriptine, bromocriptine, reference compound] |  |  |  |  |  |  |  |  |  |  |  |  |  |  | inhibitory activity against the depression of locomotor activity caused by MPTP ([1]; mouse, in vivo): only a weak inhibitory activity
CCn1c(=O)c2c(nc(/C=C/c3ccc(OC)c(OC)c3)n2C)n(CC)c1=O [Compound 2, (E)-8-(3,4-Dimethoxystyryl)-1,3-diethyl-7-methylxanthine] | 1584 ± 196 | > 300 | 0.03 | 5 | 80 | 2 | 1265 ±316.9 |  |  |  |  |  |  |  | Amount of Active Movements (average count ± S.E.M) ([1]; test compound 0.63 mg/kg orally, 30 minutes starting 30 minutes after administration): 610 ±147.9 count
CCn1c(=O)c2c(nc(/C=C/c3ccc(OC)c(OC)c3OC)n2C)n(CC)c1=O [Compound 8, (E)-1,3-Diethyl-7-methyl-8-(2,3,4-trimethoxystyryl)xanthine] | 1406 ± 155 | > 300 | 0.23 | 5 | 92 | 2 | 800 ±156.8 | 94 | 89 | 80 | 99 | 95 | 74 | 3.9 | 
CCn1c(=O)c2c(nc(/C=C/c3ccc(OC)c(C)c3C)n2C)n(CC)c1=O [Compound 10, (E)-1,3-Diethyl-8-(4-methoxy-2,3-dimethylstyryl)-7-methylxanthine] | 1637 ± 127 | > 300 | 0.24 | 5 | 68 |  |  | 56 | 57 | 91 | 94 | 90 | 93 | 2 | Amount of Active Movements (average count ± S.E.M) [1, 8]: 754 ±174.2 count
CCn1c(=O)c2c(nc(/C=C/c3ccc(OC)c(C)c3OC)n2C)n(CC)c1=O [Compound 14, (E)-8-(2,4-Dimethoxy-3-methylstyryl)-1,3-diethyl-7-methylxanthine] | 1378 ± 216 | > 300 |  | 5 | 92 | 1 |  |  |  |  |  |  |  | 1.6 | ED50 ([3]; po): 0.6 mg/kg; Amount of Active Movements (average count ± S.E.M) [1, 8]: 817 ±163.1 count
COc1ccc(/C=C/c2nc3c(c(=O)n(C)c(=O)n3C)n2C)c(OC)c1OC [Compound 20, (E)-8-(2,3,4-Trimethoxystyryl)caffeine] |  | > 300 | 0.35 | 5 | 72 | 7 | 937 ±189.5 | 1 | 11 | 51 | 83 | 90 | 88 | 50 | Ki (A₁ receptor; Cheng-Prusoff's equation): > 100000 nM; Ratio (A₁/A₂) (A₂ receptor [4]; ratio of Ki values A₁/A₂): > 2,000
CCn1c(=O)c2c(nc(/C=C/c3cc(OC)c4c(c3)OCO4)n2C)n(CC)c1=O [Compound 107, (E)-1,3-Diethyl-8-(3-methoxy-4,5-methylenedioxystyryl)-7-methylxanthine] | 1490 ± 146 | > 100 | 0.01 | 5 | 92 | 3 | 604 ±192.6 |  |  |  |  |  |  |  | inhibition at 1 µM (A₂ receptor [5]; 10^-6M): 84%; inhibition at 0.1 µM (A₂ receptor [5]; 10^-7M): 93%
N[C@@H](Cc1ccc(O)c(O)c1)C(=O)O [L-DOPA, reference compound] |  |  |  |  |  |  |  |  |  |  |  |  |  |  | Amount of Active Movements (average count ± S.E.M) ([1]; L-DOPA 300 mg/kg orally): 561 ±271.01^1) count; inhibitory activity against the depression of locomotor activity caused by MPTP ([1]; oral, L-DOPA 300 mg/kg, bromocriptine 40 mg/kg, Compounds (I) 10 mg/kg or less than 10 mg/kg): only a weak inhibitory activity
